Like-named read-outs stand apart in the source and are kept apart here. Positions of bridges follow the written chain, without caps; N, C: chain ends. Residues, ends and D or L forms follow the SMILES beside them.
Assays:
ASFV SY18 strain = format: cell-based, African swine fever virus
[1] = test system: human plasma (coagulation system); format: biochemical; conditions: pH 7.4
thrombin = format: biochemical; conditions: 10μM

Compound: CC[C@H](C)[C@@H]1NC(=O)CNC(=O)[C@H](CO)NC(=O)[C@@H]2CSSC[C@@H](C(=O)N[C@@H](Cc3ccc(O)cc3)C(=O)O)NC(=O)[C@H](CCCCN)NC(=O)[C@@H]3CSSC[C@H](NC(=O)[C@H](CCC(N)=O)NC(=O)[C@H](Cc4ccc(O)cc4)NC(=O)[C@H](CCC(N)=O)NC(=O)[C@H](CC(N)=O)NC(=O)[C@H](Cc4ccccc4)NC(=O)[C@@H]4CCCN4C(=O)[C@@H](NC(=O)CNC(=O)[C@H](Cc4ccc(O)cc4)NC(=O)CN)CSSC[C@H](NC(=O)[C@H](Cc4ccc(O)cc4)NC(=O)CNC(=O)CNC(=O)[C@H](CCCCN)NC(=O)[C@H](Cc4ccc(O)cc4)NC(=O)CNC(=O)[C@H](CCCNC(=N)N)NC1=O)C(=O)N[C@@H](CCCCN)C(=O)NCC(=O)N[C@@H]([C@@H](C)O)C(=O)N[C@@H](Cc1ccccc1)C(=O)N[C@@H](CCCCN)C(=O)N[C@@H](CCC(N)=O)C(=O)N[C@@H]([C@@H](C)O)C(=O)N3)C(=O)N[C@@H](Cc1c[nH]cn1)C(=O)N[C@@H](CO)C(=O)N[C@@H](Cc1c[nH]cn1)C(=O)N2 [OPTX-1] (H-GYGCPFNQYQCHSHCSGIRGYKGGYCKGTFKQTCKCY-OH; disulfide 4-26, 11-34, 15-36 (inferred); N-terminus and C-terminus assumed)
- inhibition of ASFV infection/replication (ASFV SY18 strain; 5μM): inhibited ASFV infection in PAM cells
- inhibition of ASFV infection/replication (ASFV SY18 strain; 10μM): inhibited ASFV infection in PAM cells
- anticoagulant effect (plasma recalcification time) [1]: show anticoagulant effects in plasma-based coagulation assays
- cytotoxicity on PAM cells (PAM cells): more significant than on Vero cells
- thrombin inhibitory effect (thrombin): the activity of thrombin was inhibited
- cytotoxicity on Vero cells (Vero cells): less cytotoxicity on Vero cells than other defensins
- overall cytotoxicity (Vero and PAM cells) (Vero cells): relative low cytotoxicities
